# In patent US5948886A, “Acylated enol derivatives of α-ketoesters and α-ketoamides” (Hoechst Marion Roussel, Inc., priority 1997, dated 1999):
# What was measured:
# Elastase [1] = target: T1, Elastase (Homo sapiens, UniProt P08246); assay: In vitro assay of elastase in the presence of the prodrug and porcine liver esterase; format: biochemical
# T1 construct: Elastase is isolated from human sputum; from tissue; host or cells: human sputum
# T1 sequence (P08246 30-267): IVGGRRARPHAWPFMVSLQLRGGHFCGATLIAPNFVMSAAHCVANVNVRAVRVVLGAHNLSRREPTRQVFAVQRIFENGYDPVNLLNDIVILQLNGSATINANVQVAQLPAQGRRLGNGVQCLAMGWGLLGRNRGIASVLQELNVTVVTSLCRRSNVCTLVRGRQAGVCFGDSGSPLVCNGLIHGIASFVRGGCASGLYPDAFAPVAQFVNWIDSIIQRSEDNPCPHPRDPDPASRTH
# Description: (§1) Elastase was assayed in vitro using the chromogenic substrate N-MeOSuc-Ala-Ala-Pro-Val-p-nitroanilide ([S]=0.20 mM; Km=0.16 mM), available commercially. The assay techniques are similar to those described by Mehdi, et al., Biochemical and Biophysical Research Communications, 166, 595 (1990). The assay mixture consists of partially purified elastase and substrate (0.2 mM) in 0.1 M HEPES (pH 7.5), 0.5 M NaCl, 10% DMSO and 0.1% Brij 35. The reaction (1 or 2 mL, in a plastic cuvette) is maintained at 37° C. and the hydrolysis of the substrate is followed in the presence of MDL 104,569 and 5 units/mL of porcine liver esterase (Sigma Chemical Co., cat. no. E-3128). Elastase is isolated from human sputum, although recently it has become commercially available. The rate of hydrolysis of the substrate with no inhibitor or prodrug added is assigned 100%. In the presence of 1 μM MDL 104,569, a rate of 81% was obtained; when esterase ([…], Sigma Chemical Co.) was also present, the rate decreased to 24%.
# (§2) Elastase was assayed in vitro in the presence of MDL 105,565 using the techniques and procedures described in Example 18. With MDL 105,565, at a concentration of 10 nM, a rate of 99% was obtained; when esterase was added, this rate was 76%. At a concentration of 45 nM, the rates were 94% (without esterase) and 37% (with esterase).
# Elastase [2] = target: T1, Elastase; assay: In vitro assay of elastase with chromogenic substrate N-MeOSuc-Ala-Ala-Pro-Val-p-nitroanilide, no esterase; format: biochemical; conditions: for Ki: parent (liberated) drug itself, read-out: Ki measured / determined independently; for rate of hydrolysis of the substrate (no inhibitor or prodrug added = 100%): without esterase
# Description: as §1, §2
smiles,measurement,setting,value
"COC(=O)C(=O)C(NC(=O)C1CCCN1C(=O)C(NC(=O)c1ccc(C(=O)NS(=O)(=O)c2ccc(Cl)cc2)cc1)C(C)C)C(C)C (stereo not drawn) [liberated drug, reference compound]",Ki,"Elastase [1]; drug liberated from MDL 105,565 by esterase in the assay, read-out: Ki of the liberated drug, calculated",13 nM
same,Ki,Elastase [2],2 nM
"COC(=O)/C(OC(C)=O)=C(\NC(=O)[C@@H]1CCCN1C(=O)[C@@H](NC(=O)c1ccc(C(=O)NS(=O)(=O)c2ccc(Cl)cc2)cc1)C(C)C)C(C)C [MDL 105,565, L-Prolinamide, N-[4-[[[(4-chlorophenyl)sulfonyl]amino]carbonyl]benzoyl]-L-valyl-N-[2-(acetyloxy)-3-methoxy-1-(1-methylethyl)-3-oxo-1-propenyl]-, (E)]",rate of hydrolysis of the substrate (no inhibitor or prodrug added = 100%),"Elastase [1]; 10 nM compound, esterase added",76%
same,rate of hydrolysis of the substrate (no inhibitor or prodrug added = 100%),"Elastase [1]; 45 nM compound, with esterase",37%
same,rate of hydrolysis of the substrate (no inhibitor or prodrug added = 100%),Elastase [2]; 10 nM compound,99%
same,rate of hydrolysis of the substrate (no inhibitor or prodrug added = 100%),Elastase [2]; 45 nM compound,94%
"COC(=O)CCC(=O)N[C@@H](C)C(=O)N[C@@H](C)C(=O)N1CCC[C@H]1C(=O)NC(=C(OC(C)=O)C(=O)OC)C(C)C (mixture of isomers) [MDL 104,569, L-Prolinamide, N-(4-methoxy-1,4-dioxobutyl)-L-alanyl-L-alanyl-N-[2-(acetyloxy)-3-methoxy-1-(1-methylethyl)-3-oxo-1-propenyl]-, (E)- and (Z)-mixture]",rate of hydrolysis of the substrate (no inhibitor or prodrug added = 100%),"Elastase [1]; 1 μM compound, esterase also present",24%
same,rate of hydrolysis of the substrate (no inhibitor or prodrug added = 100%),"Elastase [2]; 1 μM compound, substrate 0.2 mM, pH 7.5, 37° C.",81%
"COC(=O)CCC(=O)NC(C)C(=O)NC(C)C(=O)N1CCCC1C(=O)NC(C(=O)C(=O)OC)C(C)C (stereo not drawn) [parent drug, MeOSuc-Ala-Ala-Pro-Val-CO2 CH3, reference compound]",Ki,Elastase [2],200 nM
